The results in this text go back to patent US10676471B2, “Cycloalkyl-linked diheterocycle derivatives” (Pfizer Inc., priority 2014, dated 2020).

The structures appear in SMILES notation.

In the assay the test system is BT20 Cell. Put plainly: Cancer Cell Lysate Total L-Glutamate Assay. In kind it is cell-based. Conditions: total L-glutamate in cell lysate, BT20 cells, 2 hour incubation with test compound. An outline of the steps: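 BT20 and other cancer lines at ~80% confluence were given fresh L-glutamine-containing medium, then treated with serially diluted compound (0.5% DMSO) for 2 hours at 37° C. Washed cells were lysed by freeze-thaw and sonication. Lysate glutamate was measured via glutamate oxidase/HRP/50 μM Amplex Red fluorescence (ex 530-560, em 585 nm); IC50 by four-parameter logistic fit.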

Take `O=C(Cc1ccccn1)Nc1nnc(CC2CCC(c3nnc(Nc4cnccn4)s3)C2)s1` (racemic) [Example 87, (rac)-N-[5-({(cis)-3-[5-(pyrazin-2-ylamino)-1,3,4-thiadiazol-2-yl]cyclopentyl}methyl)-1,3,4-thiadiazol-2-yl]-2-(pyridin-2-yl)acetamide]: 7.5 nM corresponded to half-maximal inhibition (Homo sapiens, BT-20, 2 h) (IC50).

Under “Homo sapiens, BT-20, 2 h”, `CCNc1nnc(C2CCC(Cc3nnc(NC(C)=O)s3)C2)s1` (racemic) [Example 66, (rac)-N-[5-({(cis)-3-[5-(ethylamino)-1,3,4-thiadiazol-2-yl]cyclopentyl}methyl)-1,3,4-thiadiazol-2-yl]acetamide] showed an IC50 of 1290 nM. Against the preceding compound, the IC50 is about 170-fold higher.

Regarding `O=C(Cc1ccccn1)Nc1nnc(C[C@H]2CC[C@@H](c3nnc(NC(=O)Cc4ccccn4)s3)C2)s1` (single isomer, unassigned) [Example 4], the IC50 (Homo sapiens, BT-20, 2 h) amounted to 21.6 nM.

Consider `C[C@H](C(=O)Nc1nnc(C[C@@H]2CC[C@H](c3nnc(NC(=O)[C@@H](C)c4cccnc4)s3)C2)s1)c1cccnc1` (single isomer, unassigned) [Example 33, 2-(pyridin-3-yl)-N-(5-{[(cis)-3-(5-{[2-(pyridin-3-yl)propanoyl]amino}-1,3,4-thiadiazol-2-yl)cyclopentyl]methyl}-1,3,4-thiadiazol-2-yl)propanamide], for which the midpoint of inhibition (Homo sapiens, BT-20, 2 h), the IC50, lay at 7 nM.

In the case of `Cn1ccc(CC(=O)Nc2nnc([C@H]3CC4(C[C@H](c5nnc(NC(=O)Cc6ccn(C)n6)s5)C4)C3)s2)n1` (stereo partly shown) [Example 97, N,N′-(spiro[3.3]heptane-2,6-diyldi-1,3,4-thiadiazole-5,2-diyl)bis[2-(1-methyl-1H-pyrazol-3-yl)acetamide]], half-maximal inhibition (IC50) required 2.7 nM.

With `CC(C)C(=O)Nc1ccc(C[C@@H]2CC[C@H](c3nnc(NC(=O)Cc4ccccn4)s3)C2)nn1` (single isomer, unassigned) [Example 77, 2-methyl-N-(6-{[(cis)-3-{5-[(pyridin-2-ylacetyl)amino]-1,3,4-thiadiazol-2-yl}cyclopentyl]methyl}pyridazin-3-yl)propanamide], the midpoint of inhibition (Homo sapiens, BT-20, 2 h), the IC50, lay at 0.4 nM.

The compound `CCC(=O)Nc1ccc(C[C@@H]2CC[C@H](c3nnc(NC(=O)Cc4ccn(C)n4)s3)C2)nn1` (single isomer, unassigned) [Example 92, N-(6-{[(cis)-3-(5-{[(1-methyl-1H-pyrazol-3-yl)acetyl]amino}-1,3,4-thiadiazol-2-yl)cyclopentyl]methyl}pyridazin-3-yl)propanamide] gave an IC50 (Homo sapiens, BT-20, 2 h) of 0.2 nM.

For the compound `O=C(Cc1ccccn1)Nc1nnc(C[C@@H]2CC[C@H](c3nnc(NC(=O)Cc4ccccn4)s3)C2)s1` (single isomer, unassigned) [Example 2], the midpoint of inhibition (Homo sapiens, BT-20, 2 h), the IC50, lay at 1 nM.

In the case of `C[C@@H](c1nnc(NC(=O)Cc2ccccn2)s1)[C@H]1C[C@@H](c2nnc(NC(=O)Cc3ccccn3)s2)C1` (single isomer, unassigned) [Example 103], the IC50 (Homo sapiens, BT-20, 2 h) amounted to 0.8 nM.

The compound `CC(C)C(=O)Nc1ccc(CC2CCC(c3nnc(NC(=O)Cc4ccccn4)s3)C2)nn1` (racemic) [Example 76, (rac)-2-methyl-N-(6-{[(cis)-3-{5-[(pyridin-2-ylacetyl)amino]-1,3,4-thiadiazol-2-yl}cyclopentyl]methyl}pyridazin-3-yl)propanamide] gave an IC50 (Homo sapiens, BT-20, 2 h) of 3 nM.

Under “Homo sapiens, BT-20, 2 h”, `O=C(Cc1ccccn1)Nc1nnc(C2CCC(c3nnc(NC(=O)Cc4ccccn4)s3)C2)s1` (racemic) [Example 138, N,N′-[cyclopentane-1,3-diyldi-1,3,4-thiadiazole-5,2-diyl]bis[2-(pyridin-2-yl)acetamide]] yielded an IC50 of 120 nM.

On to `CC(=O)Nc1nnc(C2CCC(Cc3nnc(NC(=O)Cc4ncccn4)s3)C2)s1` (racemic) [Example 46, (rac)-N-[5-({(cis)-3-[5-(acetylamino)-1,3,4-thiadiazol-2-yl]cyclopentyl}methyl)-1,3,4-thiadiazol-2-yl]-2-(pyrimidin-2-yl)acetamide], for which half-maximal inhibition (Homo sapiens, BT-20, 2 h) (IC50) required 349 nM. This IC50 is about 2.9-fold higher than that of the compound before.

For the setting “Homo sapiens, BT-20, 2 h”, `CC(=O)Nc1nnc(C[C@H]2C[C@@H](c3nnc(NC(C)=O)s3)C2)s1` (single isomer, unassigned) [Example 62, N-[5-({cis-3-[5-(acetylamino)-1,3,4-thiadiazol-2-yl]cyclobutyl}methyl)-1,3,4-thiadiazol-2-yl]acetamide] came in with an IC50 of 38.5 nM.

With `CC(C)(C)C(=O)Nc1nnc(C[C@H]2CC[C@@H](c3nnc(NC(=O)C(C)(C)C)s3)C2)s1` (single isomer, unassigned) [Example 28, N-(5-{[(cis)-3-{5-[(2,2-dimethylpropanoyl)amino]-1,3,4-thiadiazol-2-yl}cyclopentyl]methyl}-1,3,4-thiadiazol-2-yl)-2,2-dimethylpropanamide], half-maximal inhibition (Homo sapiens, BT-20, 2 h) (IC50) required 3020 nM.

The compound `CC(C)C(=O)Nc1nnc(C2CC3(C2)CC(c2nnc(NC(=O)C(C)C)s2)C3)s1` (racemic) [Example 94, (rac)-N,N′-(spiro[3.3]heptane-2,6-diyldi-1,3,4-thiadiazole-5,2-diyl)bis(2-methylpropanamide)] had an IC50 (Homo sapiens, BT-20, 2 h) of 8.5 nM.

`O=C(Cc1ccccn1)Nc1nnc(C[C@H]2C[C@H](c3nnc(NC(=O)Cc4ccccn4)s3)C2)s1` (single isomer, unassigned) [Example 23, 2-(pyridin-2-yl)-N-{5-[(trans-3-{5-[(pyridin-2-ylacetyl)amino]-1,3,4-thiadiazol-2-yl}cyclobutyl)methyl]-1,3,4-thiadiazol-2-yl}acetamide] yielded an IC50 (Homo sapiens, BT-20, 2 h) of 9.9 nM.

In turn, `CC(=O)Nc1nnc(C[C@H]2CC[C@@H](c3nnc(NC(=O)Cc4ccccc4)s3)C2)s1` (single isomer, unassigned) [Example 45, N-{5-[(cis)-3-{[5-(acetylamino)-1,3,4-thiadiazol-2-yl]methyl}cyclopentyl]-1,3,4-thiadiazol-2-yl}-2-phenylacetamide] displayed an IC50 (Homo sapiens, BT-20, 2 h) of 295 nM. Against the preceding compound, the IC50 is about 30-fold higher.

Consider `O=C(Cc1ccccn1)Nc1ccc(C[C@H]2CC[C@@H](c3nnc(Nc4ccccn4)s3)C2)nn1` (single isomer, unassigned) [Example 74, 2-(pyridin-2-yl)-N-[6-({(cis)-3-[5-(pyridin-2-ylamino)-1,3,4-thiadiazol-2-yl]cyclopentyl}methyl)pyridazin-3-yl]acetamide], for which, where the note is “Homo sapiens, BT-20, 2 h”, the IC50 was found to be 3.4 nM.

Under “Homo sapiens, BT-20, 2 h”, `C[C@@H](C(=O)Nc1nnc(C[C@H]2CC[C@@H](c3nnc(NC(=O)[C@H](C)c4cccnc4)s3)C2)s1)c1cccnc1` (single isomer, unassigned) [Example 36, 2-(pyridin-3-yl)-N-(5-{[(cis)-3-(5-{[2-(pyridin-3-yl)propanoyl]amino}-1,3,4-thiadiazol-2-yl)cyclopentyl]methyl}-1,3,4-thiadiazol-2-yl)propanamide] showed an IC50 of 284 nM.

Under “Homo sapiens, BT-20, 2 h”, `O=C(Cc1ccccc1)Nc1nnc(C[C@H]2CC[C@@H](c3nnc(NC(=O)Cc4ccccc4)s3)C2)s1` (single isomer, unassigned) [Example 10] came in with an IC50 of 33.3 nM.

As for `CC(=O)Nc1ccc(C[C@H]2CC[C@@H](c3nnc(NC(=O)Cc4ccccn4)s3)C2)nn1` (single isomer, unassigned) [Example 68, N-{5-[(cis)-3-{[6-(acetylamino)pyridazin-3-yl]methyl}cyclopentyl]-1,3,4-thiadiazol-2-yl}-2-(pyridin-2-yl)acetamide], the IC50 (Homo sapiens, BT-20, 2 h) came to 7.1 nM. This IC50 lies about 4.7-fold lower than the previous one.

Take `CCC(=O)Nc1nnc([C@H]2C[C@@H](Cc3nnc(NC(=O)Cc4ccccn4)s3)C2)s1` (single isomer, unassigned) [Example 105, N-{5-[cis-3-({5-[(pyridin-2-ylacetyl)amino]-1,3,4-thiadiazol-2-yl}methyl)cyclobutyl]-1,3,4-thiadiazol-2-yl}propanamide]: the IC50 (Homo sapiens, BT-20, 2 h) was 9.5 nM.

`O=C(Cc1ccccn1)Nc1nnc(CC2CCC(c3nnc(NC(=O)Cc4ccccn4)s3)C2)s1` (racemic) [Example 3, (rac)-2-(pyridin-2-yl)-N-(5-{[(cis)-3-{5-[(pyridin-2-ylacetyl)amino]-1,3,4-thiadiazol-2-yl}cyclopentyl]methyl}-1,3,4-thiadiazol-2-yl)acetamide] had an IC50 (Homo sapiens, BT-20, 2 h) of 6.4 nM.

Take `CC(C)C(=O)Nc1ccc([C@H]2C[C@@H](Cc3nnc(NC(=O)Cc4ccccn4)s3)C2)nn1` (single isomer, unassigned) [Example 125, 2-methyl-N-{6-[cis-3-({5-[(pyridin-2-ylacetyl)amino]-1,3,4-thiadiazol-2-yl}methyl)cyclobutyl]pyridazin-3-yl}propanamide]: the IC50 (Homo sapiens, BT-20, 2 h) was determined as 3.1 nM.

For the setting “Homo sapiens, BT-20, 2 h”, `C[C@H](c1nnc(NC(=O)Cc2ccccn2)s1)[C@H]1C[C@@H](c2nnc(NC(=O)Cc3ccccn3)s2)C1` (single isomer, unassigned) [Example 102, 2-(pyridin-2-yl)-N-{5-[(1-(cis)-3-{5-[(pyridin-2-ylacetyl)amino]-1,3,4-thiadiazol-2-yl}cyclobutyl)ethyl]-1,3,4-thiadiazol-2-yl}acetamide] showed an IC50 of 2 nM.

`CC(=O)Nc1nnc(C[C@@H]2CC[C@H](c3nnc(NC(=O)Cc4ccccn4)s3)C2)s1` (single isomer, unassigned) [Example 57, N-{5-[(cis)-3-{[5-(acetylamino)-1,3,4-thiadiazol-2-yl]methyl}cyclopentyl]-1,3,4-thiadiazol-2-yl}-2-(pyridin-2-yl)acetamide] registered an IC50 (Homo sapiens, BT-20, 2 h) of 21.4 nM.

As to `O=C(Cc1ccccn1)Nc1nnc(C[C@@H]2CC[C@H](c3nnc(Nc4ncccn4)s3)C2)s1` (single isomer, unassigned) [Example 84, 2-(pyridin-2-yl)-N-[5-({(cis)-3-[5-(pyrimidin-2-ylamino)-1,3,4-thiadiazol-2-yl]cyclopentyl}methyl)-1,3,4-thiadiazol-2-yl]acetamide], the IC50 (Homo sapiens, BT-20, 2 h) was 0.5 nM.

With `CC(=O)Nc1nnc(C[C@H]2CC[C@@H](c3nnc(NC(=O)Cc4cncnc4)s3)C2)s1` (single isomer, unassigned) [Example 59, N-{5-[(cis)-3-{[5-(acetylamino)-1,3,4-thiadiazol-2-yl]methyl}cyclopentyl]-1,3,4-thiadiazol-2-yl}-2-(pyrimidin-5-yl)acetamide], the IC50 (Homo sapiens, BT-20, 2 h) turned out to be 7760 nM.

One may read the IC50 as the concentration that inhibits the measured activity by half.
